What was measured:
[1] = system: N-acetyl-β-D-glucosaminidase (Bovine kidney); assay: Glycosidase inhibition: N-acetyl-β-D-glucosaminidase (Bovine kidney); assay type: biochemical; settings: for % Nacetyl glucosaminidase inhibition at 0.8 mM Bovine kidney: approximately 0.8 mM; for IC50: read-out: IC50 Nacetyl glucosaminidase Bovine kidney;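 as to all read-outs here: enzyme activity followed by cleavage of the matching p-nitrophenyl glycoside (5 mM) in phosphate buffer set to the enzyme's optimal pH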
[2] = molecular target: T1, β-Glucuronidase Bovine liver (Bos taurus, UniProt A3KMY8); assay: Glycosidase inhibition: β-Glucuronidase Bovine liver; assay type: biochemical; settings: for % Glucuronidase inhibition at 0.8 mM Bovine Liver: approximately 0.8 mM; for IC50: read-out: IC50 Glucuronidase Bovine Liver;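 as to all read-outs here: bovine liver β-glucuronidase acting on p-nitrophenyl β-D-glucuronide substrate in citric acid/disodium hydrogen phosphate buffer, pH 5.0, 27 °C, mean of triplicate runs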
T1 construct: The assay involved the use of Bovine liver β-glucuronidase; purchased Sigma; host or cells: bovine liver
T1 sequence (A3KMY8 1-652): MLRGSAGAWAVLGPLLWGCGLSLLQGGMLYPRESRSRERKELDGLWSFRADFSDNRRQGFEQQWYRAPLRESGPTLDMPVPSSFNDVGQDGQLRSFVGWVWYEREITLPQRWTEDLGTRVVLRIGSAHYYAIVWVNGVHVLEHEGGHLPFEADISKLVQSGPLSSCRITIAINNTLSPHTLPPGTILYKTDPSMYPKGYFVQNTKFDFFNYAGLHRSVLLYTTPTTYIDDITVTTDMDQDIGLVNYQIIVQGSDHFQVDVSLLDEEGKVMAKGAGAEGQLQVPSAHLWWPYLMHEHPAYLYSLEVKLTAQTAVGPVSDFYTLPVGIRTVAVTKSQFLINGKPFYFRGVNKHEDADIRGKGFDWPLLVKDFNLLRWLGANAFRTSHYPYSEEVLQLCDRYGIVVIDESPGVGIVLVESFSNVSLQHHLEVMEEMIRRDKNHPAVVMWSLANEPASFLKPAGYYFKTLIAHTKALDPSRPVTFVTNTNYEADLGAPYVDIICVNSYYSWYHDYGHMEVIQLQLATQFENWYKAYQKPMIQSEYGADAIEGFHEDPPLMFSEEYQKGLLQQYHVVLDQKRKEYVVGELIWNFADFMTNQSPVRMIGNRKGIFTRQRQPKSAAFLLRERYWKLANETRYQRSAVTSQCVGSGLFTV

SMILES	% Nacetyl glucosaminidase inhibition at 0.8 mM Bovine kidney [1]	% Glucuronidase inhibition at 0.8 mM Bovine Liver [2]	IC50 [2]	IC50 [1]	Mean % Inhibition, N-acetyl-β-D-glucosaminidase Bovine kidney ([1]; 143 ug/ml)	inhibition at 143 µg/mL ([2]; 143 ug/ml)
O=C(O)[C@@H]1[C@@H](O)[C@H](O)[C@H]2[C@@H](O)CCN21	5.1%	−2.3%	–	–	–	–
CCC1CC(CC2CC(CCCC(C)C)[C@@H](CC)C(C)[C@H]2C)C(C)C(C)C1C (stereo partly drawn)	49.4%	3.9%	–	–	–	–
O=C(O)[C@@]1(O)CNC[C@@H](O)[C@H]1O	4.8%	58.6%	531 µM	–	–	–
CC(CC(N)C(=O)O)C(=O)O (stereo not drawn)	0.8%	−1.6%	–	–	–	–
O=C(O)[C@]1(O)NC[C@@H](O)[C@H]1O	2.9%	1.4%	–	–	–	–
O=C(O)CCC1[C@H](CO)C(=O)[C@H](O)[C@H]1CO (stereo partly drawn)	90.1%	85.3%	81 µM	5.1 µM	–	–
CC[C@@H]1C(=O)[C@H](O)CN1CCCCC(=O)O	8%	0.8%	–	–	–	–
O=C(O)[C@H]1NCC(O)C1O (stereo partly drawn)	6.6%	13.8%	–	–	–	–
O=C(O)[C@H]1N[C@H](CO)C(O)[C@H](O)[C@@H]1O (stereo partly drawn)	25.8%	3.3%	–	–	–	–
O=C(O)CN1C[C@@H](O)[C@@H](O)C1[C@@H](O)CO (stereo partly drawn)	82.3%	4%	–	137 µM	–	–
O=C(O)[C@H]1NC(=O)[C@H](O)[C@@H](O)[C@@H]1O	−5.2%	99.6%	0.04 µM	–	–	–
Cn1c(=O)c2c(ncn2C)n(C)c1=O [Caffeine, reference compound]	–	–	–	–	1.3%	-2.4%
O=C(O)[C@H]1NC[C@H](O)[C@@H](O)[C@@H]1O [drawing 22]	2.4%	88.9%	107 µM	–	–	–

Further lines, with some results ahead:

% Nacetyl glucosaminidase inhibition at 0.8 mM Bovine kidney [1]	% Glucuronidase inhibition at 0.8 mM Bovine Liver [2]	IC50 [2]	IC50 [1]	SMILES	Mean % Inhibition, N-acetyl-β-D-glucosaminidase Bovine kidney ([1]; 143 ug/ml)	inhibition at 143 µg/mL ([2]; 143 ug/ml)
7.1%	−2.2%	–	–	N[C@]1(C(=O)O)C[C@H](CO)C1	–	–
−4.7%	−3.7%	–	–	CN1C[C@H](O)C[C@H]1C(=O)O	–	–
−0.6%	−4.4%	–	–	C[N+]1([O-])CC[C@H](O)[C@@H]1C(=O)O (stereo partly drawn)	–	–
8%	3.8%	–	–	C[N+]1(C)C[C@@H](O)[C@H](O)[C@H]1C(=O)[O-]	–	–
−4.2%	−3.2%	–	–	CC(O)(CC(N)C(=O)O)C(=O)O (stereo not drawn)	–	–
2.3%	−1.7%	–	–	C[N+]1(C)CCC[C@H]1C(=O)[O-]	–	–
17%	−2%	–	–	CC[C@@H]1C(C)[C@H](C)CN1CCCC(C)=O (stereo partly drawn)	–	–
7.6%	0.6%	–	–	C[C@@]1(C(=O)O)NC[C@H](O)[C@H]1O	–	–
57.9%	97.9%	7.3 µM	–	CC(=O)NC1NC[C@H](C(=O)O)[C@H](O)[C@@H]1O (stereo partly drawn)	–	–

Reference: patent US20110015226A1, “Treatment of Energy Utilization Disease” (SUMMIT CORPORATION PLC, priority 2008, published 2011)
